Laboratory results: patent publication US6699877B2 (Gruenenthal GmbH, priority 2000, dated 2004)

Assays:
[1] = target: T1, glycine binding site of the NMDA receptor channel (Rattus norvegicus, UniProt P35439); test: Receptor binding, displacement of (3H)-MDL 105.519 on rat cerebral membrane homogenates; details: 1 nmol/l (3H)-MDL 105.519
T1 construct: from tissue; host or cells: rat brain cortex and hippocampus membrane homogenate
Method: Receptor Binding (Glycine Binding Site of the NMDA Receptor Channel)
Experiments to determine the affinity of the compounds according to the invention of Formula I to the glycine binding site of the NMDA receptor channel were carried out on cerebral membrane homogenates (homogenate of Cortex- and Hippocampus-Areal from the brain of male rats, Wistar strain) (B. M. Baron, B. W. Siegel, B. L. Harrison, R. S. Gross, C. and P. Towers, Journal of Pharmacology and Experimental Therapeutics, Vol. 279, p. 62, 1996).
For this purpose, Cortex and Hippocampus from freshly removed rats' brains were dissected, homogenized in 5 mmol/l TRIS-acetate buffer, 0.32 mol/l sacharose pH 7.4 (10 ml/g fresh weight) with a Potter homogenizer (made by Braun/Melsungen, 10 piston strokes at 500 rpm) while cooling with ice and subsequently centrifuged for 10 minutes at 1,000 g and 4° C. The first supernatant material was collected and the sediment homogenized again with […] TRIS-acetate buffer, 0.32 mol/l safcharose pH 7.4 (5 ml/g original fresh weight) using the Potter homogenizer (10 piston strokes at 500 rpm) while cooling with ice and centrifuged for 10 minutes at 1,000 g and 4° C. The resultant supernatant material was combined with the supernatant material from the first centrifugation and centrifuged at 17,000 g for 20 minutes at 4° C. The supernatant material after this centrifugation was discarded, the membrane sediment taken up with 5 mmol/l TRIS-acetate buffer pH 8.0 (20 ml/g original fresh weight) and homogenized with 10 piston strokes at 500 rpm.
The membrane homogenate was then incubated for 1 hour at 4° C. and centrifuged for 30 minutes at 50,000 g and 4° C. The supernatant material was discarded and the centrifuge tube with the membrane sediment sealed with parafilm and frozen for 24 hours at −20° C. The membrane sediment was thawed on the following day, taken up with ice-cold 5 mmol/l TRIS-acetate buffer, 0.1% saponin (w/v) pH 7.0 (10 ml/g original fresh weight), homogenized with 10 piston strokes at 500 rpm and subsequently centrifuged for 20 minutes at 50,00 g and 4° C. The resultant supernatant material was discarded, the sediment taken up in a small volume with 5 mmol/l TRIS-acetate buffer pH 7.0 (about 2 ml/g original fresh weight) and homogenized again with 10 piston strokes at 500 rpm. After determining the protein content, the membrane homogenate was adjusted to a protein concentration of 10 mg protein/ml using 5 mmol/l TRIS-acetate buffer pH 7.0 and frozen in aliquots for testing.
For the receptor binding test, aliquots were thawed, diluted 1:10 with 5 mmol/l TRIS-acetate buffer pH 7.0, homogenized with 10 piston strokes at 500 rpm using the potter homogenizer (10 piston strokes at 500 rpm) while cooling with ice and centrifuged for 60 minutes at 55,000 g at 4° C. The supernatant material was decanted, the membrane sediment adjusted to a protein concentration of 1 mg/ml with ice-cold 50 mmol/l TRIS-acetate buffer pH 7.0, homogenized again with 10 piston strokes at 500 rpm and kept in suspension in the ice bath while stirring on a magnetic stirrer. 100 μl of this membrane homogenate per 1 ml of feedstock was used in each case in the receptor binding test (0.1 mg protein/ml in the final batch).
In the binding test, 50 mmol/l TRIS-acetate buffer pH 7.0 was used as buffer and 1 nmol/l (^3H)-MDL 105.519 (B. M. Baron et al 1996) was used as radioactive ligand. The proportion of unspecific binding was determined in the presence of 1 mmol/l glycine.
In further batches, the compounds according to the invention were added in concentration series and the displacement of the radioactive ligand from its specific binding to the glycine binding site of the NMDA receptor channel determined. The respective triple batches were incubated for 120 minutes at 4° C. and then harvested to determine the radioactive ligands bound to the membrane homogenate by filtration through glass fiber filter mats (GF/B). […]

AMPA receptor channels = test: AMPA-induced ionic currents in RNA-injected Xenopus oocytes; assay type: cell-based, rat; details: 10 μmol/l compound; AMPA 100 μmol/l; n = 2
Method: Xenopus oocytes from stages V and VI (Dumont, J. N., Journal of Morphology, Vol. 136, 1972) were micro-injected with total RNA from brain tissue of adult rats (100-130 ng/cell) and kept in the culture medium (composition in mmol/l: 88.0 NaCl, 1.0 KCl, 1.5 CaCl2, 0.8 MgSO4, 2.4 NaHCO3, 5 HEPES, 100 IU/ml penicillin, 100 μg/ml streptomycin, pH 7.4) for up to 10 days at 20° C. Transmembranous ionic currents were recorded as in conventional two-electrode voltage clamp technology with a holding potential of −70 mV (P. Bloms-Funke P, M. Madeja, U. Muβhoff, E.-J. Speckman, Neuroscience Letters, Vol. 205, p. 115, 1996). The OTC interface and the Cellworks Software were used for recording data and controlling the test apparatus (npi, FRG). […] To test the effects of substances brought about via the glycine B-binding site of the NMDA receptor channel, the glycine dosage/response curve was recorded with and without the respective compound according to the invention. […] The data was analyzed using Igor-Pro software (Version 3.1, WaveMetrics USA). […] The significance for unpaired measured quantities is determined by the Mann-Whitney U-Test and for paired measured quantities by the Wilcoxon test (Sysstat. SPSS Inc., USA). EC50 values are calculated according to the following formula: […]

With `O=C(O)C1Nc2cc(Cl)cc(Cl)c2C2C=CCC12` (stereo not drawn) [Example 2, 7,9-dichloro-3a,4,5,9b-tetrahydro-3H-cyclopenta[c]quinoline-4-carboxylic Acid] the inhibition at 10 µM ([1]; 10 μmol/l test substance, read-out: Displacement (%, 10 μmol/l) of radioactive ligand from specific binding) was 100%, the Ki ([1]; mean from three independent experiments, from IC50 by Cheng-Prussoff equation) was 300 nM and the “AMPA-induced ionic currents Inhibition with 10 μmol/l of compounds according to the invention” value (AMPA receptor channels) was 5.4% (n = 2).
